The conditions of data set [1]: literature data, cited from earlier work.
A short description of data set [2]: Solubility of mineral compounds in water. The settings on record: at 20° C.; chemically pure material used in Example 1. The source says:
The mineral compounds contain at least one mineral from the group consisting of sodium, potassium, calcium and magnesium and zinc. […] Water solubility is a prerequisite for the activity of the mineral compounds used, since corresponding anions and cations can thus be released.
This reported solubility is based on literature data. This list in no way restricts the actual multiplicity of possible mineral compounds having the required properties.

Read-outs that look alike come from different tables or passages of the source.

Turning to `[O]=[Mg]` [Magnesium oxide], the solubility in water in data set [1] (temperature not given) was 12 µg/mL. Consider `[O]=[Zn]` [Zinc oxide], for which the solubility in water in data set [1] (29° C.) was 1.6 µg/mL. In turn, `[O]=[Mg]` [type 1 magnesium oxide, magnesium oxide] showed a solubility in water in data set [2] of 12.5 µg/mL. In the case of Hydroxylapatite, in data set [1] (20° C.), the solubility in water is 6.57 µg/mL.

The values are drawn from patent publication US20170209346A1, “SHAPED CELLULOSE BODIES WITH PHYSIOLOGICALLY ACTIVE MINERAL SUBSTANCES DISTRIBUTED THEREIN” (smartpolymer GmbH, priority 2014, published 2017).
